The values that follow come from US7442501B2, “SQV nucleic acids and polypeptides” (Massachusetts Institute of Technology, priority 2002, dated 2008).

For experiment [1], the target named is T1, chondroitin synthase (Caenorhabditis elegans, UniProt Q7Z1Z1).
T1 construct: wild-type (N2) animals were used to prepare worm protein extracts; from tissue; host or cells: whole C. elegans hermaphrodites (young adults), sonicated protein extract
T1 sequence (Q7Z1Z1 1-736): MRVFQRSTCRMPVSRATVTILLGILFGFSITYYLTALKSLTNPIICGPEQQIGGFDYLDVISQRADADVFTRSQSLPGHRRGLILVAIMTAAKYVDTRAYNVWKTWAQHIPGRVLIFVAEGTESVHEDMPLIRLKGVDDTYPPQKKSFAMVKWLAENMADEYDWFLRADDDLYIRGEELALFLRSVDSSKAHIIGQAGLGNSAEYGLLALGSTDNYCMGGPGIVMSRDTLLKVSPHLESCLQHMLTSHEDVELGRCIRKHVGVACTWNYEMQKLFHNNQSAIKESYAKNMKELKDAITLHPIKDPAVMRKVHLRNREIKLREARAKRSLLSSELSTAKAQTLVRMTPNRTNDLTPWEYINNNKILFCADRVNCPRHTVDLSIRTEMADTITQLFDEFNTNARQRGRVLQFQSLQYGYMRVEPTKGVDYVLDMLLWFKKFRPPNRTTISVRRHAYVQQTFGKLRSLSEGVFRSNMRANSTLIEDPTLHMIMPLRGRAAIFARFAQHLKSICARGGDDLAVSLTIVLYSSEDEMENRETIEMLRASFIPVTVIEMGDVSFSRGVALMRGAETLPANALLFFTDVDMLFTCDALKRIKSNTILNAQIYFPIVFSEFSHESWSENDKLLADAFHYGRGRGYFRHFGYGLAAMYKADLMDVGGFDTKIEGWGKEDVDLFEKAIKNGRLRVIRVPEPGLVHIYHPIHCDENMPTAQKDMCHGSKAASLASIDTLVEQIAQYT
Nature of the experiment: GlcAT (glucuronyl transferase) assay of chondroitin synthase activity in worm protein extracts. It counts as biochemical. The method, then: (§1) sqv-5(n3611), sqv-5(n3611)/hT2, and wild-type (N2) animals were used to prepare worm protein extracts. These extracts were tested for chondroitin synthase activity using standard methods, for example, in DeAngelis et al., (J. Biol. Chem. 27:24124-24129, 2000).
(§2) A desulfated chondroitin acceptor was used for the GalNAcT (N-acetylgalactosamyl transferase) assay. Desulfated and β-glucuronidase-treated chondroitin acceptor was used for the GlcAT (glucuronyl transferase) assay.
(§3) The enzymatic activity of SQV-5 was assayed as follows. SQV-5(n3611), sqv-5(n3611)/hT2, and wild-type N2 hermaphrodites were picked as L4 larvae by visual examination of the vulva using a dissecting microscope. The worms staged were allowed to grow for an additional twenty-three to twenty-seven hours at 22° C., re-examined, then transferred to 1.7-ml plastic tubes containing sterile water. The staged worms were washed once with water and twice with 50 mM Tris, pH 7.5, then frozen in a 50 μl volume using liquid nitrogen, and stored at −70° C.
(§4) Worm extracts were assayed for GIcAT glucoronosyltransferase activity by combining 1.3×10^5 cpm UDP-^3H-glucuronic acid donor (NEN), 6 μg β-glucuronidase-treated chondroitin acceptor, and 2.7 μg worm extract in a 25 μl reaction volume containing 0.05% Triton X-100, 10 mM MnCl2, and 100 μM ATP, pH 6.5. GalNAcT activity was detected by combining 1.3 to 3×10^5 cpm UDP-^3H-GalNAc donor (NEN), 12 μg chondroitin acceptor, and 6.7 μg worm extract in a 25 μl reaction volume containing 0.05% Triton X-100 and 10 mM MnCl2, pH 6.5. […] Pelleted material was resuspended in water and counted by liquid scintillation.
(§5) The chondroitin acceptor used was prepared as follows. […] Uronic acid concentration of both preparations was determined by the Carbazole method (Bitter, et al., Anal. Biochem. 4:330-334, 1962).

Experiment [2] concerns chondroitin synthase. The description is as above. It counts as biochemical. The note with it: extract genotype sqv-5/sqv-5 (sqv-5(n3611)). The method, then: as §1, §2, §3, §4, §5

As for `O=C(O)[C@H]1O[C@H](OP(=O)(O)OP(=O)(O)OC[C@H]2O[C@@H](n3ccc(=O)[nH]c3=O)[C@H](O)[C@@H]2O)[C@H](O)[C@@H](O)[C@@H]1O` [UDP-glucuronic acid], the CPM at chondroitin synthase [1] (extract genotype +/+ (wild-type)) turned out to be 1820 CPM; at chondroitin synthase [1] (extract genotype +/sqv-5 (sqv-5(n3611)/hT2)), 1369 CPM; with chondroitin synthase [2], 109 CPM.
